From patent publication US11197856B2, “Bicyclic compounds and methods for their use in treating autism” (priority 2013, dated 2021)

Tests used:
cerebellar explants = test: Cerebellar explants, glutamate/3-nitropropionic acid neurotoxicity; format: cell-based, Wistar rats
Procedure: Cover slips were placed into a large Petri dish and washed in 70% alcohol for 5 minutes, then washed with Millipore H2O. The cover slips were air dried, and coated with Poly-D-Lysine (1 mg/ml stock solution in PBS, 90-100 μl) for 2 hours at 34° C.
Postnatal day 8 Wistar rats were used for the study. The rats were sacrificed and placed in ice for 1 minute, decapitated and the cerebellum removed and placed on ice. Cerebellum tissue was placed in 1 ml of 0.65% glucose-supplemented PBS (10 μl 65% stock D (+)glucose/1 ml PBS) in a large Petri dish, chopped up into smaller sections and triturated with a 1 ml insulin syringe via a 23 G (0.4 mm) needle, and then squirted back into the glucose solution in the large Petri dish. The tissue was sieved through (125 μm pore size gauze) and centrifuged (2 minutes at 60 g) twice to exchange the medium into serum-free BSA-supplemented START V medium (Biochrom, Germany). The second centrifugation step was done with 1 ml of START V medium. The microexplants were reconstituted into 500 μl of START V medium and put on ice.
Two hours after PDL-coating, the slides were washed with Millipore H2O and air dried. Each slide was placed into a small Petri dish (diameter: 35 mm) and 40 μl of START V/cell suspension was added. The tissue was incubated for 2 hours at 34° C. (settlement period). START V-medium (1 ml) was then added to the Petri dish and cultivated at 34° C. in the presence of 5% CO2 in air at 100% humidity for 48 hours.
For the study, certain explant cultures were exposed to vehicle (PBS) only. In the first study (Study 1) 10 μl of toxin 1 (L-glutamate—100 mM in Millipore water; final concentration; 1 mM) and 10 μl of toxin 2 (3-nitropropionic acid—50 mM—pH 7—in Millipore water, final concentration: 0.5 mM) was applied simultaneously with the drug to be tested ([…]). In each case, the drugs were left in contact with the explants for the duration of the study.
After explants were exposed to drugs for the study period, cells were then rinsed in PBS and then fixed in increasing concentrations of paraformaldehyde (500 μl of 0.4% PFA was applied; then 1.2% PFA; then 3% PFA and finally 4% PFA (each fixation step: 2-3 minutes). Finally, the microexplants were rinsed in PBS.
Neurons in the explants were then evaluated for morphology (presence of neurites) and counted as live cells per microscopic field. Four fields displaying highest cell density were counted per cover slip and the data presented as mean±standard error of the mean (SEM); n=4 each. Statistical significance was evaluated by using the non-paired Student's t-test.

hippocampal CA1 neurons = test: Dendritic arborization, dendritic and spine length after Golgi staining, mecp2 knockout mice; format: in vivo
Procedure: We assess the effects of cG-2-AllylP treatment on dendrites. Transgenic mecp2 knockout mice (n=15 to 20) are administered cG-2-AllylP intraperitoneally at a dose of 20 mg/kg once daily. Following sacrifice dendritic spine density, spine length and aborization are examined after Golgi staining after nine weeks, according to Table 5 below.
Dendritic length is assessed by distance from the soma of representative hippocampal CA1 neurons from 9 week old male mecp2 null mutant mice treated with either saline (3 neurons analysed from 3 separate mice, n=9) or cG-2-AllylP (20 mg/kg i.p. 1/day, from week 4; 3 neurons are analysed from 3 separate mice, n=9).

[1] = system: hippocampal slices of Shank3-deficient mice; test: Shank3-deficient mice: hippocampal slice electrophysiology; format: in vivo
Procedure: 1 to 3 month old wild-type and heterozygous Shank3-deficient mice are divided into 4 treatment groups: placebo treated wild-type, placebo treated Shank3-deficient group and two Shank3-deficient cG-2-AllylP treated groups. The animals are given placebo (water) or cG-2-AllylP formulated in water administered orally, b.i.d for 14 days. cG-2-AllylP is administered at two doses: 15 or 60 mg/kg.
Post-mortem, acute hippocampal slices (350 μm) are prepared from mice using a tissue chopper. Slices are maintained and experiments are conducted at 32° C. Slices are perfused with Ringer's solution containing (in mM): NaCl, 125.0; KCl, 2.5; MgSO4, 1.3; NaH2PO4, 1.0; NaHCO3, 26.2; CaCl2, 2.5; glucose, 11.0. The Ringer's solution is bubbled with 95% 02/5% CO2, at 32° C., during extracellular recordings (electrode solution: 3 M NaCl). Slices are maintained for 1 hr prior to establishment of a baseline of field excitatory postsynaptic potentials (fEPSPs) recorded from stratum radiatum in area CA1, evoked by stimulation of the Schaffer collateral-commissural afferents (100 μs pulses every 30 s) with bipolar tungsten electrodes placed into area CA3. Test stimulus intensity is adjusted to obtain fEPSPs with amplitudes that are one-half of the maximal response. The EPSP initial slope (mV/ms) is determined from the average waveform of four consecutive responses. Input-output (I/O) curves are generated by plotting the fEPSP slope versus fiber volley amplitude in low-Mg^2+ (0.1 mM) solution. AMPA receptor-mediated and NMDA receptor-mediated I/O relationships are measured in the presence of ionotropic glutamate receptor antagonists: […] APV (50 μM) and 6-cyano-7-nitroquinoxaline-2,3-dione CNQX (100 μM). Paired-pulse responses are measured with interstimulus intervals of 10 to 200 ms, and are expressed as the ratio of the average responses to the second stimulation pulse to the first stimulation pulse. […]

[2] = system: growth-associated protein-43 (GAP-43); test: PBBI in rats: GAP-43 immunohistochemistry in hippocampus; format: in vivo, Sprague-Dawley rats; conditions: 30 mg/kg oral once daily
Procedure: The methods for producing PBBI in this Example is the same as described above for Example 26. Adult Sprague-Dawley rats were randomly assigned into three groups: sham (craniotomy only), PBBI+vehicle (i.e. H2O), and PBBI+cG-2-AllylP. cG-2-AllylP (or vehicle) was administered via oral gavage at 30 mg/kg at 30 min post-injury and continued once daily thereafter for 7, 14 or 28 days. At each treatment endpoint, rats were perfused and brains were processed for histological analysis (n=5-6/group/time-point). For detection of axonal sprouting, immunohistochemical detection of growth-associated protein-43 (GAP-43) was employed. Synaptogenesis was determined by immunohistochemistry for synaptophysin (SYN). For histological quantification, the integrated density in the hippocampal region was determined using NIH ImageJ software.

C=CC[C@]12CCCN1C(=O)CNC2=O [cG-2-AllylP, (8aS)-Allyl-hexahydropyrrolo[1,2-a]pyrazine-1,4-dione]
numbers of cells having neurites (cerebellar explants; administered simultaneously with glutamate): significantly increased the numbers of cells having neurites in a dose-dependent manner
glutamate-induced neurotoxicity (cerebellar explants; low doses (cG-2-AllylP: 100 pm to 10 nm)): significant decrease in glutamate-induced neurotoxicity
dendritic length by distance from the soma (hippocampal CA1 neurons; hippocampal CA1 neurons, vs saline): produces longer dendrites over much of the range of distances from the somas
dendritic arborization and dendritic spine length (hippocampal CA1 neurons; mecp2 knockout mice, 20 mg/kg i.p. once daily, nine weeks): improves dendritic arborization and increases dendritic spine length
hippocampal long-term potentiation (LTP) and its maintenance ([1]; both Shank3-deficient groups, vs placebo): increases hippocampal long-term potentiation (LTP) and its maintenance
AMPA receptor-mediated field potentials ([1]; both heterozygous groups, 15 or 60 mg/kg): normalizes the AMPA receptor-mediated field potentials
average slope of I/O function ([1]; both heterozygous groups, vs placebo treated Shank3-deficient group): increase in the average slope of I/O function
injury-induced reduction in GAP-43 expression ([2]; 7d or 14d post-PBBI): no effect on injury-induced reductions
PBBI-induced reduction in GAP-43 expression ([2]; 28 days post-injury): attenuated PBBI-induced reductions
